Test results from EP4273147A1, “SUBSTITUTED SPIROLACTAMS, SALTS THEREOF AND THEIR USE AS HERBICIDALLY ACTIVE SUBSTANCES” (Bayer Aktiengesellschaft, priority 2022, dated 2023).

What was measured:
ZEAMX [1] = test: Pre-emergence effects on crop plants (Table D1); type: in vivo, Zea mays; conditions: crop plant; application rate 80 g/ha; visual grading after ca. 3 weeks
DIGSA [2] = test: Herbicidal pre-emergence action (Table A12); type: in vivo, Digitaria sanguinalis; conditions: application rate 320 g/ha; visual grading after ca. 3 weeks
Description: (§1) Seeds of mono- and dicotyledonous weed plants were sown in plastic pots (double sowings with one species of mono- and one species of dicotyledonous weed plants per pot), in sandy loam, and covered with soil.

TRZAS [3] = test: Post-emergence effects on crop plants (Table F2); type: in vivo, Triticum aestivum; conditions: application rate 320 g/ha, crop plant TRZAS
Description: (§2) 2 to 3 weeks after sowing, the test plants were sprayed in the single-leaf stage.

ECHCG [4] = test: Herbicidal pre-emergence action (Table A2); type: in vivo, Echinochloa crus-galli; conditions: visual grading after ca. 3 weeks
Description: as §1

POAAN [5] = test: Herbicidal post-emergence action (Table B7); type: in vivo, Poa annua
Protocol: (§3) Seeds of mono- and dicotyledonous weed plants were placed in plastic pots in sandy loam soil (doubly sown with in each case one species of mono- or dicotyledonous weed plants per pot), covered with soil and cultivated in a greenhouse under controlled growth conditions. 2 to 3 weeks after sowing, the test plants were treated at the one-leaf stage. […] After the test plants had been kept in the greenhouse under optimum growth conditions for about 3 weeks, the activity of the preparations was rated visually in comparison to untreated controls. For example, 100% activity = the plants have died, 0% activity = like control plants.

LOLRI [6] = test: Herbicidal pre-emergence action (Table A3); type: in vivo, Lolium rigidum; conditions: visual grading after ca. 3 weeks
Description: as §1

ORYZA [7] = test: Post-emergence effects on crop plants (Table F3); type: in vivo, Oryza sativa; conditions: application rate 320 g/ha, crop plant ORYZA
Description: as §2

BRSNW [8] = test: Pre-emergence effects on crop plants (Table D5); type: in vivo, Brassica napus; conditions: crop plant; application rate 320 g/ha; visual grading after ca. 3 weeks
GLXMA [9] = test: Post-emergence effects on crop plants (Table F4); type: in vivo, Glycine max; conditions: application rate 320 g/ha, crop plant GLXMA
Description: as §2

DIGSA [10] = test: Herbicidal pre-emergence action, section C (Table C5); type: in vivo, Digitaria sanguinalis; conditions: visual grading after ca. 3 weeks
SETVI [11] = test: Herbicidal pre-emergence action (Table A5); type: in vivo, Setaria viridis; conditions: visual grading after ca. 3 weeks
Description: as §1

MATIN [12] = test: Herbicidal post-emergence action (Table B6); type: in vivo, Matricaria inodora; conditions: rated visually after about 3 weeks
Protocol: as §3

SETVI [13] = test: Herbicidal pre-emergence action, section C (Table C10); type: in vivo, Setaria viridis; conditions: application rate 320 g/ha; visual grading after ca. 3 weeks
TRZAS [14] = test: Pre-emergence effects on crop plants (Table D2); type: in vivo, Triticum aestivum; conditions: crop plant, visual grading after ca. 3 weeks
Description: Seeds of mono- and dicotyledonous weed plants and crop plants were sown, in plastic or organic planting pots, in sandy loam and covered with soil. The compounds according to the invention, formulated in the form of wettable powders (WP) or as emulsifiable concentrates (EC), were applied to the surface of the covering soil as aqueous suspension or emulsion, with the addition of 0.5% of an additive, at an application rate of 600 1 of water/ha (converted).
Following treatment, the pots were placed in a greenhouse and kept under optimum growth conditions for the test plants.

ZEAMX [15] = test: Post-emergence effects on crop plants (Table F1); type: in vivo, Zea mays; conditions: application rate 320 g/ha, crop plant ZEAMX
Description: as §2

POAAN [16] = test: Herbicidal pre-emergence action (Table A7); type: in vivo, Poa annua; conditions: visual grading after ca. 3 weeks
Description: as §1

BRSNW [17] = test: Post-emergence effects on crop plants (Table F5); type: in vivo, Brassica napus; conditions: application rate 320 g/ha, crop plant BRSNW
Description: as §2

ORYZA [18] = test: Pre-emergence effects on crop plants (Table D3); conditions: crop plant, visual grading after ca. 3 weeks
VIOTR = test: Herbicidal pre-emergence action, section C (Table C12); type: in vivo, Viola tricolor; conditions: application rate 320 g/ha; visual grading after ca. 3 weeks
MATIN [19] = test: Herbicidal pre-emergence action (Table A4); type: in vivo, Matricaria inodora; conditions: application rate 1280 g/ha; visual grading after ca. 3 weeks
Description: as §1

STEME = test: Herbicidal pre-emergence action (Table A6); type: in vivo, Stellaria media; conditions: visual grading after ca. 3 weeks
Description: as §1

ABUTH = test: Herbicidal pre-emergence action (Table A1); type: in vivo, Abutilon theophrasti; conditions: application rate 1280 g/ha; visual grading after ca. 3 weeks vs untreated controls (100% = plants have died off, 0% = as control plants)
Description: as §1

ECHCG [20] = test: Herbicidal post-emergence action (Table B3); type: in vivo, Echinochloa crus-galli; conditions: application rate 1280 g/ha; rated visually after about 3 weeks
Protocol: as §3

ECHCG [21] = test: Herbicidal pre-emergence action, section C (Table C6); type: in vivo, Echinochloa crus-galli; conditions: application rate 320 g/ha; visual grading after ca. 3 weeks
ECHCG [22] = test: Herbicidal post-emergence action, section E (Table E5); type: in vivo, Echinochloa crus-galli; conditions: application rate 320 g/ha; assessed visually after ca. 3 weeks
Description: as §2

VERPE = test: Herbicidal pre-emergence action, section C (Table C11); type: in vivo, Veronica persica; conditions: application rate 80 g/ha; visual grading after ca. 3 weeks
Description: Seeds of mono- and dicotyledonous weed plants and crop plants were sown, in plastic or organic planting pots, in sandy loam and covered with soil. The compounds according to the invention, formulated in the form of wettable powders (WP) or as emulsifiable concentrates (EC), were applied to the surface of the covering soil as aqueous suspension or emulsion, with the addition of 0.5% of an additive, at an application rate of 600 1 of water/ha (converted). Following treatment, the pots were placed in a greenhouse and kept under optimum growth conditions for the test plants.

GLXMA [23] = test: Pre-emergence effects on crop plants (Table D4); type: in vivo, Glycine max; conditions: crop plant; application rate 320 g/ha; visual grading after ca. 3 weeks
LOLRI [24] = test: Herbicidal pre-emergence action, section C (Table C7); type: in vivo, Lolium rigidum; conditions: application rate 320 g/ha; visual grading after ca. 3 weeks
ALOMY = test: Herbicidal pre-emergence action, section C (Table C2); type: in vivo, Alopecurus myosuroides; conditions: application rate 320 g/ha; visual grading after ca. 3 weeks

| SMILES | pre-emergence activity against ZEAMX (ZEAMX [1]) [%] | pre-emergence activity against DIGSA (DIGSA [2]) [%] | post-emergence activity against TRZAS (TRZAS [3]) [%] | pre-emergence activity against ECHCG (ECHCG [4]; application rate 1280 g/ha) [%] | post-emergence activity against POAAN (POAAN [5]; application rate 1280 g/ha) [%] | pre-emergence activity against LOLRI (LOLRI [6]; application rate 1280 g/ha) [%] | post-emergence activity against ORYZA (ORYZA [7]) [%] | pre-emergence activity against BRSNW (BRSNW [8]) [%] | post-emergence activity against GLXMA (GLXMA [9]) [%] | pre-emergence activity against SETVI (SETVI [11]; application rate 1280 g/ha) [%] | post-emergence activity against MATIN (MATIN [12]; application rate 320 g/ha) [%] | pre-emergence activity against SETVI (SETVI [13]) [%] | post-emergence activity against ZEAMX (ZEAMX [15]) [%] | pre-emergence activity against POAAN (POAAN [16]; application rate 320 g/ha) [%] | post-emergence activity against BRSNW (BRSNW [17]) [%] | pre-emergence activity against VIOTR (VIOTR) [%] | pre-emergence activity against LOLRI (LOLRI [6]; application rate 320 g/ha) [%] | pre-emergence activity against STEME (STEME; application rate 320 g/ha) [%] | post-emergence activity against ECHCG (ECHCG [20]) [%] | further results |
| --- | --- | --- | --- | --- | --- | --- | --- | --- | --- | --- | --- | --- | --- | --- | --- | --- | --- | --- | --- | --- |
| Cc1cccc(CN2CCCC3(CCCN(Cc4cccc(C)c4F)C3=O)C2=O)c1F (racemic) [I-053] | 0 | 100 | 10 | 100 | 90 | 90 | 0 | 10 | 0 | 100 | 90 | 100 | 0 | 100 | 20 | 90 | – | – | – | pre-emergence activity against DIGSA (DIGSA [10]; application rate 320 g/ha): 100%; pre-emergence activity against TRZAS (TRZAS [14]; application rate 320 g/ha): 0%; pre-emergence activity against ORYZA (ORYZA [18]; application rate 320 g/ha): 0% |
| O=C1N(Cc2ccccc2Cl)CCCC12CCN(Cc1c(F)cccc1F)C2=O (racemic) [I-076] | – | 90 | – | 100 | – | – | – | – | – | 100 | – | – | – | 100 | – | – | 100 | 90 | 90 | pre-emergence activity against MATIN (MATIN [19]): 90%; pre-emergence activity against ABUTH (ABUTH): 90% |
| O=C1N(Cc2ccc(F)cc2F)CCCC12CCCN(Cc1ccc(F)cc1F)C2=O (racemic) [I-021] | 0 | – | 0 | 100 | – | – | 0 | 20 | 10 | – | – | 100 | 10 | 90 | 0 | 80 | 100 | 90 | – | pre-emergence activity against ECHCG (ECHCG [21]): 100%; post-emergence activity against ECHCG (ECHCG [22]): 80%; pre-emergence activity against VERPE (VERPE): 100%; pre-emergence activity against GLXMA (GLXMA [23]): 10%; pre-emergence activity against DIGSA (DIGSA [10]; application rate 80 g/ha): 90%; pre-emergence activity against SETVI (SETVI [11]; application rate 320 g/ha): 100%; pre-emergence activity against LOLRI (LOLRI [24]): 100%; pre-emergence activity against TRZAS (TRZAS [14]; application rate 80 g/ha): 0%; pre-emergence activity against ALOMY (ALOMY): 100%; pre-emergence activity against ORYZA (ORYZA [18]; application rate 80 g/ha): 10% |
| Cc1ccc(F)c(CN2CCCC3(CCCN(Cc4c(F)ccc(C)c4F)C3=O)C2=O)c1F (racemic) [I-029] | – | – | – | 100 | 90 | 100 | – | – | – | 100 | – | – | – | 90 | – | – | – | – | 100 | pre-emergence activity against STEME (STEME; application rate 1280 g/ha): 90%; post-emergence activity against MATIN (MATIN [12]; application rate 1280 g/ha): 100% |
| O=C1N(Cc2ccccc2Cl)CCCC12CCCN(Cc1ccccc1Cl)C2=O (racemic) [I-030] | – | – | – | – | – | – | – | – | – | 100 | 90 | – | – | – | – | – | – | – | – | pre-emergence activity against ECHCG (ECHCG [4]; application rate 320 g/ha): 90%; post-emergence activity against POAAN (POAAN [5]; application rate 320 g/ha): 90%; pre-emergence activity against POAAN (POAAN [16]; application rate 1280 g/ha): 90% |
